Results reported in paper PMC10600239, “Selective MCL-1 inhibitor ABBV-467 is efficacious in tumor models but is associated with cardiac troponin increases in patients” (Communications Medicine, 2023).
Where “and” joins values, the source holds several entries; their conditions need not be identical. Identical values can stand only once.

Test system: AMO-1 xenografts
Assay: AMO-1 xenograft efficacy (tumor volume, body weight)
Assay type: in vivo, mouse
Design: key to Anti-tumor Activity vs. AMO-1 (DSMZ), Median / Anti-tumor Activity vs. AMO-1 (DSMZ), individual animal / Anti-tumor Activity vs. AMO-1 (DSMZ), Mean: tumor volume in mm^3 (length × width^2/2)
Description: All animal studies were conducted in accordance with the guidelines approved by the Institutional Animal Care and Use Committees of AbbVie. The research protocol was approved by In Vivo Pharmacology at AbbVie prior to study initiation but was not publicly registered or disclosed. Female C.B-17 SCID-beige mice (AMO-1, OPM-2, NCI-H929, and OCI-AML2 xenografts) and female NSG mice (MV4-11-Red.Fluc systemic) were purchased from Charles River Laboratories (Wilmington, MA). Animals were housed in a light cycle-controlled room with HEPA filtration at 22 °C. Animals had nesting and climbing cage topper as the primary environmental enrichment. Animals were inoculated subcutaneously in the right flank with 5 × 10^6 (AMO-1, OPM-2, NCI-H929, and OCI-AML2) or intravenous (IV) with 5 × 10^6 (MV4-11-Red.Fluc). The inoculation volume (0.2 mL) comprised a 50:50 mixture of cells in growth media and Matrigel (BD Biosciences) for subcutaneous injections and 100% phosphate-buffered saline for IV administration. All cell lines used in this publication were authenticated using IDEXX for STR profiling as well as their IMPACT and human IMPACT panels for pathogen screening. Electronic calipers were used to measure the length and width of each tumor 2 to 3 times per week. Tumor volume was estimated by applying the following equation: volume = length × width^2/2. All groups remained blinded during measurements and dosing; only veterinary staff were aware of group identity. When tumors reached approximately 200 mm^3, mice were randomized by match and distributed into treatment and control groups. All xenograft trials were conducted using 5 to 10 mice per group, and all mice were ear tagged and monitored individually throughout the studies. […] Tumor burden in the systemic MV4-11-Red.Fluc experiment was measured using an IVIS® spectrum from PerkinElmer by taking the total photon flux of the entire dorsal side of an individual mouse. […] A background control mouse that was tumor naive but received D-Luciferin was placed in the upper left corner of each image. The total flux from this animal was subtracted from the total flux of each animal present in the image.
For in vivo studies, maximal tumor growth inhibition (TGI) was calculated as the greatest treatment response using the following equation: Maximal TGI = (1 − mean tumor volume of the treated group/mean tumor volume of the vehicle control group) × 100. The tumor growth delay (TGD) percentage was determined as the percentage increase of the median time period for the treatment group to reach an arbitrary tumor volume of 1000 mm^3 relative to the vehicle control group. […] A power analysis was conducted using historical data to determine the number of animals required to yield significance of 0.05 at a 30% difference. […] Data from experiments in vivo were analyzed using the student’s t-test for TGI values and the Mann–Whitney U test for TGD using Excel and GraphPad Prism. Fisher’s exact test was used to probe significance of differences in response frequency.

[1] = 6.25 mg/kg IV QDx1, Day 13 (day before dosing begins)
[2] = 6.25 mg/kg Q7Dx2 IV, SCID-beige female mice, Day 21
[3] = 6.25 mg/kg Q7Dx2 IV, SCID-beige female mice, Day 24

Cc1c(Cl)c2c(Cl)c(C)c1-c1c(-c3ccc(F)cc3)sc3ncnc(c13)O[C@@H](C(=O)O)Cc1cc(ccc1OCc1ccnc(-c3ccc(OC[C@H]4COCCO4)cc3)n1)OC[C@@H](CN1CCN(C)CC1)O2 [Compound A-1747745.0]
Anti-tumor Activity vs. AMO-1 (DSMZ), Median (6.25 mg/kg IV QDx1, day 23): 225.89
Group Mean, Body Weight (6.25 mg/kg IV QDx1, day 23): 22.00 g
Anti-tumor Activity vs. AMO-1 (DSMZ), Mean (6.25 mg/kg IV QDx1, day 26): 454.97
Anti-tumor Activity vs. AMO-1 (DSMZ), Median (6.25 mg/kg IV QDx1, day 26): 392.97
Anti-tumor Activity vs. AMO-1 (DSMZ), Mean (6.25 mg/kg IV QDx1, day 28): 690.68
Anti-tumor Activity vs. AMO-1 (DSMZ), Median (6.25 mg/kg IV QDx1, day 28): 578.26
Group Mean, Body Weight (6.25 mg/kg IV QDx1, day 28): 22.25 g
Anti-tumor Activity vs. AMO-1 (DSMZ), Mean (6.25 mg/kg IV QDx1, day 30): 882.20
Anti-tumor Activity vs. AMO-1 (DSMZ), Median (6.25 mg/kg IV QDx1, day 30): 791.67
Anti-tumor Activity vs. AMO-1 (DSMZ), Mean (6.25 mg/kg IV QDx1, day 34): 1592.98
Anti-tumor Activity vs. AMO-1 (DSMZ), Median (6.25 mg/kg IV QDx1, day 34): 1465.20
Anti-tumor Activity vs. AMO-1 (DSMZ), Mean (6.25 mg/kg IV QDx1, day 36): 1754.60
Anti-tumor Activity vs. AMO-1 (DSMZ), Median (6.25 mg/kg IV QDx1, day 36): 1695.89
Xenograft AMO-1 (DSMZ) tumor volume Day 13, Mean [1]: 216.25 mm³
Xenograft AMO-1 (DSMZ) tumor volume Day 13, Median [1]: 216.39 mm³
% T/C (mean) [1]: 100.07%
% T/C (median) [1]: 100.10%
Xenograft AMO-1 (DSMZ) (mm³) Day 13, individual animals (6.25 mg/kg IV QDx1, SCID-beige female mice, Day 13 (randomization, day before dosing begins)): 219 mm³ and 211 mm³ and 216 mm³ and 221 mm³ and 217 mm³ and 214 mm³ and 224 mm³ and 208 mm³
Mortality Observation Day 32 (6.25 mg/kg Q7Dx2 IV, AMO-1 (DSMZ) xenograft, SCID-beige female mice, per animal): EUTV (6×) and GRPX
% T/C (mean) (6.25 mg/kg Q7Dx2 IV, Day 13): 101.00%
% T/C (median) (6.25 mg/kg Q7Dx2 IV, Day 13): 98.08%
% T/C (mean) (6.25 mg/kg Q7Dx2 IV, Day 19): 30.07%
% T/C (median) (6.25 mg/kg Q7Dx2 IV, Day 19): 31.46%
% T/C (mean) (6.25 mg/kg Q7Dx2 IV, Day 21): 29.54%
% T/C (median) (6.25 mg/kg Q7Dx2 IV, Day 21): 27.04%
% T/C (mean) (6.25 mg/kg Q7Dx2 IV, Day 24): 22.09%
% T/C (median) (6.25 mg/kg Q7Dx2 IV, Day 24): 20.32%
% T/C (mean) (6.25 mg/kg Q7Dx2 IV, Day 26): 21.67%
% T/C (median) (6.25 mg/kg Q7Dx2 IV, Day 26): 14.15%
% T/C (mean) (6.25 mg/kg Q7Dx2 IV, Day 28): 23.23%
% T/C (median) (6.25 mg/kg Q7Dx2 IV, Day 28): 13.94%
Xenograft AMO-1 (DSMZ) Day 19 Mean (6.25 mg/kg Q7Dx2 IV, SCID-beige female mice, Day 19, group mean tumor volume): 118.80 mm³
Xenograft AMO-1 (DSMZ) Day 19 Median (6.25 mg/kg Q7Dx2 IV, SCID-beige female mice, Day 19, group median tumor volume): 115.27 mm³
Xenograft AMO-1 (DSMZ) (mm³) Day 19, individual animals (6.25 mg/kg Q7Dx2 IV, SCID-beige female mice, Day 19, individual tumor volumes): 119 mm³ and 199 mm³ and 123 mm³ and 80 mm³ and 92 mm³ and 115 mm³ and 104 mm³
Xenograft AMO-1 (DSMZ) Day 21, Mean [2]: 190.88 mm³
Xenograft AMO-1 (DSMZ) Day 21, Median [2]: 163.99 mm³
Xenograft AMO-1 (DSMZ) tumor volume Day 21, individual animals [2]: 209 mm³ and 370 mm³ and 179 mm³ and 144 mm³ and 116 mm³ and 164 mm³ and 155 mm³
Xenograft AMO-1 (DSMZ) (mm³) Day 24, individual animals [3]: 184 mm³ and 451 mm³ and 200 mm³ and 190 mm³ and 174 mm³ and 138 mm³ and 133 mm³
Xenograft AMO-1 (DSMZ) tumor volume Day 24, Mean [3]: 210.06 mm³
